This is an account of results in ChEMBL document CHEMBL5729619, “Substituted pyrazolo[3,4-b]pyrazines as SHP2 phosphatase inhibitors” (2023).

Bounds are passed on as bounds.

The target of this assay is T1, Tyrosine-protein phosphatase non-receptor type 11 (Homo sapiens, UniProt Q06124).
T1 sequence (Q06124 whole entry): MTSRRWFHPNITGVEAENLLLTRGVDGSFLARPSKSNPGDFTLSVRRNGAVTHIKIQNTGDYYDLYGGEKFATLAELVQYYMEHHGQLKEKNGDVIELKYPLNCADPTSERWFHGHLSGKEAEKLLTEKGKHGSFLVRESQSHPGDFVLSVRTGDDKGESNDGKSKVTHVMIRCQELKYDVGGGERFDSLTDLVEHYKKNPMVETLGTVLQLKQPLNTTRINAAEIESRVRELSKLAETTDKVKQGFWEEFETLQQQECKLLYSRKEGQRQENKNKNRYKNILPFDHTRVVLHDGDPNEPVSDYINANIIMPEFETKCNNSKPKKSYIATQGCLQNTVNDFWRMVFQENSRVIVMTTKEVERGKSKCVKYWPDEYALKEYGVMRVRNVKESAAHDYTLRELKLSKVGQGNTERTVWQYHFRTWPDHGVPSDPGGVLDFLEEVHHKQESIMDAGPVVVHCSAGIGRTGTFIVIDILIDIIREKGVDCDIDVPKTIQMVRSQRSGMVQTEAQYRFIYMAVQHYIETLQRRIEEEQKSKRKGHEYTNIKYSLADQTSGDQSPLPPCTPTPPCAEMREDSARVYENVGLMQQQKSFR
Kind of assay: Inhibition Assay: SHP2 is allosterically activated through binding of bis-tyrosyl-phorphorylated peptides to its Src Homology 2 (SH2) domains. The latter activation step leads to the release of the auto-inhibitory interface of SHP2, which in turn renders the SHP2 protein tyrosine phosphatase (PTP) active and available for substrate recognition and reaction catalysis. The catalytic activity of SHP2 was monitored using the surrogate substrate DiFMUP in a prompt fluorescence assay format.The inhibition of SHP2 by compounds of the disclosure (concentrations varying from 0.003-100 μM) was monitored using an assay in which 0.25 nM of SHP2 was incubated with of 0.5 μM of peptide IRS1_pY1172(dPEG8)pY1222 (sequence: H2N-LN(pY)IDLDLV(dPEG8)LST(pY)ASINFQK-amide) After 30-60 minutes incubation at 25° C., the surrogate substrate DiFMUP (Invitrogen, cat #D6567, 100 μM final) was added to the reaction and the conversion of DiFMUP to 6,8-difluoro-7-hydroxyl-4-methyl coumarin (DiFMU) was monitored continuously for 10 minutes with excitation at 355 nm and emission at 460 nm using a microplate reader (PolarStar, BMG).
Compound `C[C@@H]1CCN(c2n[nH]c3nc(N4CCC5(CC4)CO[C@@H](C)[C@H]5N)cnc23)c2ccc(C(=O)NCc3cccnc3)nc21` returned an IC50 of under 1000 nM.

In the case of `C[C@@H]1OCC2(CCN(c3cnc4c(N5CC(=O)N(C)c6cnccc65)n[nH]c4n3)CC2)[C@@H]1N`, the half-maximal inhibitory concentration (IC50) was under 1000 nM.

In turn, `C[C@@H]1OCC2(CCN(c3cnc4c(N5CCCc6nc(N7CCN(C)C(=O)C7)ccc65)n[nH]c4n3)CC2)[C@@H]1N` came in with an IC50 of under 1000 nM.

Turning to `CC1(CN)CCN(c2cnc3c(N4CCc5c(C6CC6)cccc54)n[nH]c3n2)CC1`, the IC50 was under 1000 nM.

`C[C@@H]1OCC2(CCN(c3cnc4c(N5CCNc6cnccc65)n[nH]c4n3)CC2)[C@@H]1N` had an IC50 of under 1000 nM.

`C[C@@H]1OCC2(CCN(c3cnc4c(N5CCCc6c5cccc6S(=O)(=O)N(C)C)n[nH]c4n3)CC2)[C@@H]1N` registered an IC50 of under 1000 nM.

Usually IC50 stands for the concentration that inhibits the measured activity by half. The low end stands for greater potency, the high end for weaker potency.
